Assay results reported in US20250223259A1, “PROTEASE INHIBITORS FOR TREATING OR PREVENTING CORONAVIRUS INFECTION” (Merck Sharp & Dohme LLC, priority 2022, published 2025).

molecular target: SARS2 coronavirus 3CL protease (Severe acute respiratory syndrome coronavirus 2 (2019-nCoV) (SARS-CoV-2), UniProt P0DTD1); experiment: SARS2 Coronavirus 3CL Protease Assay (FRET); assay type: biochemical; conditions: SARS2 3CLPro FRET assay; 5 nM enzyme, 30 min pre-incubation with compound, 15 uM peptide substrate, 4 h room temperature
Protocol: The enzymatic activity of SARS2 coronavirus 3CL protease was determined in a FRET (fluorescence resonance energy transfer)-based assay measuring the cleavage of a peptide substrate by recombinantly expressed and purified enzyme. Cleavage of the peptide SEQ ID NO:1 (CPC Scientific) by SARS2 3CL protease was measured in reaction buffer (50 mM Hepes pH 7.5, 0.01% Triton X-100, 0.01% BSA, 2 mM DTT). SARS2 3CL protease (5 nM final concentration) was pre-incubated with compound for 30 minutes before reaction initiation with peptide substrate (15 uM final concentration). Room temperature reactions (4 h) were quenched by addition of a high dose of inhibitor and read on an appropriate plate reader (excitation wavelength=495 nm, emission wavelength=520 nm). Data were analyzed by a standard 4 parameter fit to determine IC50 values.

| Compound | IC50 [nM] |
| --- | --- |
| COC(=O)N[C@H](C(=O)N1CC(C(F)(F)F)CCC1C(=O)N[C@@H](CCC(C)(F)F)C(=O)C(=O)NC1CC1)C(C)(C)C (single isomer, unassigned) [Example 82, methyl ((S)-1-((2S,5S or 2R,5R)-2-(((S)-1-(cyclopropylamino)-6,6-difluoro-1,2-dioxoheptan-3-yl)carbamoyl)-5-(trifluoromethyl)piperidin-1-yl)-3,3-dimethyl-1-oxobutan-2-yl)carbamate] | 51 |
| COC(=O)N[C@H](C(=O)N1CC2(CCCCC2)C[C@H]1C(=O)N[C@@H](CCC(C)(F)F)C(=O)C(=O)NCC(C)C)C(C)(C)C [Example 9, Methyl ((S)-1-((S)-3-(((S)-6,6-difluoro-1-(isobutylamino)-1,2-dioxoheptan-3-yl)carbamoyl)-2-azaspiro[4.5]decan-2-yl)-3,3-dimethyl-1-oxobutan-2-yl)carbamate] | 21 |
| COC(=O)N[C@H](C(=O)N1C[C@H](C(F)(F)F)C[C@H]1C(=O)N[C@@H](CCC(C)(F)F)C(=O)C(=O)NC1CC1)C(C)(C)C [Example 67, Methyl ((S)-1-((2S,4R)-2-(((S)-1-(cyclopropylamino)-6,6-difluoro-1,2-dioxoheptan-3-yl)carbamoyl)-4-(trifluoromethyl)pyrrolidin-1-yl)-3,3-dimethyl-1-oxobutan-2-yl)carbamate] | 20 |
| COC(=O)N[C@@H](Cc1noc(C)n1)C(=O)N1C[C@H]2[C@@H]([C@H]1C(=O)N[C@@H](CCC(C)(F)F)C(=O)C(=O)NC1CC1)C2(C)C [Example 123, methyl ((S)-1-((1R,2S,5S)-2-(((S)-1-(cyclopropylamino)-6,6-difluoro-1,2-dioxoheptan-3-yl)carbamoyl)-6,6-dimethyl-3-azabicyclo[3.1.0]hexan-3-yl)-3-(5-methyl-1,2,4-oxadiazol-3-yl)-1-oxopropan-2-yl)carbamate] | 29 |
| COCC(NC(=O)OC)C(=O)N1CC2(CCCCC2)C[C@H]1C(=O)N[C@@H](CCC(C)(F)F)C(=O)C(=O)NC1CC1 (single isomer, unassigned) [Example 11, Methyl ((R or S)-1-((S)-3-(((S)-1-(cyclopropylamino)-6,6-difluoro-1,2-dioxoheptan-3-yl)carbamoyl)-2-azaspiro[4.5]decan-2-yl)-3-methoxy-1-oxopropan-2-yl)carbamate] | 40 |
| COC(=O)N[C@H](C(=O)N1CCC(C)(C)C1C(=O)N[C@@H](CCC(C)(F)F)C(=O)C(=O)NC1CC1)C(C)(C)C (single isomer, unassigned) [Example 73, Methyl ((S)-1-((R or S)-2-(((S)-1-(cyclopropylamino)-6,6-difluoro-1,2-dioxoheptan-3-yl)carbamoyl)-3,3-dimethylpyrrolidin-1-yl)-3,3-dimethyl-1-oxobutan-2-yl)carbamate] | 60 |
| COC(=O)N[C@H](C(=O)N1CC2(C(F)(F)F)CCCC2C1C(=O)N[C@@H](CCC(C)(F)F)C(=O)C(=O)NC1CC1)C(C)(C)C (single isomer, unassigned) [Example 98, methyl ((S)-1-((1S,3aS,6aS or 1R,3aR,6aR)-1-(((S)-1-(cyclopropylamino)-6,6-difluoro-1,2-dioxoheptan-3-yl)carbamoyl)-3a-(trifluoromethyl)hexahydrocyclopenta[c]pyrrol-2(1H)-yl)-3,3-dimethyl-1-oxobutan-2-yl)carbamate] | 77 |
| COC(=O)N[C@H](C(=O)N1C[C@H]2[C@@H]([C@H]1C(=O)N[C@@H](CCC(C)(F)F)C(=O)C(=O)NC1CC1)C21CCCCC1)C(C)(C)C [Example 69, Methyl ((S)-1-((1R,2S,5S)-2-(((S)-1-(cyclopropylamino)-6,6-difluoro-1,2-dioxoheptan-3-yl)carbamoyl)-3-azaspiro[bicyclo[3.1.0]hexane-6,1'-cyclohexan]-3-yl)-3,3-dimethyl-1-oxobutan-2-yl)carbamate] | 31 |
